Reference: PubChem BioAssay AID248 (DTP/NCI, 2004)
Toxic doses and inconclusive results are not listed.

Tested on: L1210 leukemia ip in BDF1 mice, survival T/C
Assay: NCI In Vivo Anticancer Drug Screen. Data for tumor model L1210 Leukemia (intraperitoneal) in B6D2F1 (BDF1) mice
Conditions: endpoint: mean survival time, higher = longer survival
How it was run: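 Mice bearing the transplanted tumor received compound or vehicle. Survival of the treated group was divided by that of the vehicle-treated control group to give the ratio.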

[1] = dose: 50.0 mg/kg/injection, schedule: Q01DX001 (ip), vehicle: carboxymethylcellulose (CMC)
[2] = dose: 100.0 mg/kg/injection, schedule: Q01DX001 (ip), vehicle: carboxymethylcellulose (CMC)
[3] = dose: 200.0 mg/kg/injection, schedule: Q01DX001 (ip), vehicle: carboxymethylcellulose (CMC)
[4] = dose: 400.0 mg/kg/injection, schedule: Q01DX001 (ip), vehicle: carboxymethylcellulose (CMC)
[5] = dose: 100.0 mg/kg/injection, schedule: Q01DX009 (ip), vehicle: Klucel (hydroxypropylcellulose) (HPC)
[6] = dose: 100.0 mg/kg/injection, schedule: Q04DX003 (ip), vehicle: Klucel (hydroxypropylcellulose) (HPC)
[7] = dose: 200.0 mg/kg/injection, schedule: Q01DX009 (ip), vehicle: Klucel (hydroxypropylcellulose) (HPC)
[8] = dose: 200.0 mg/kg/injection, schedule: Q04DX003 (ip), vehicle: Klucel (hydroxypropylcellulose) (HPC)
[9] = dose: 400.0 mg/kg/injection, schedule: Q01DX009 (ip), vehicle: Klucel (hydroxypropylcellulose) (HPC)
[10] = dose: 400.0 mg/kg/injection, schedule: Q04DX003 (ip), vehicle: Klucel (hydroxypropylcellulose) (HPC)
[11] = dose: 100.0 mg/kg/injection, schedule: Q01DX001 (ip), vehicle: saline
[12] = dose: 200.0 mg/kg/injection, schedule: Q01DX001 (ip), vehicle: saline
[13] = dose: 400.0 mg/kg/injection, schedule: Q01DX001 (ip), vehicle: saline
[14] = dose: 50.0 mg/kg/injection, schedule: Q04DX003 (ip), vehicle: saline with Tween-80
[15] = dose: 100.0 mg/kg/injection, schedule: Q04DX003 (ip), vehicle: saline with Tween-80
[16] = dose: 200.0 mg/kg/injection, schedule: Q04DX003 (ip), vehicle: saline with Tween-80
[17] = dose: 400.0 mg/kg/injection, schedule: Q04DX003 (ip), vehicle: saline with Tween-80
[18] = dose: 50.0 mg/kg/injection, schedule: Q01DX009 (ip), vehicle: saline
[19] = dose: 50.0 mg/kg/injection, schedule: Q01DX009 (ip), vehicle: Klucel (hydroxypropylcellulose) (HPC)

In the case of `Cc1ccc(C2(O)CC3CCC2(c2ccc(C)cc2)C3)cc1` (stereo unspecified), the T/C [1] is reported as 95 % of control, the T/C [2] is reported as 101 % of control and the T/C [3] is reported as 98 % of control. The T/C [4] was 98 % of control.
For `C#CC(O)C1OC2OC(C)(C)OC2C1O` (stereo unspecified), the T/C [5] was 173 % of control, the T/C [6] was 101 % of control and the T/C [7] was 97 % of control. The T/C [8] was 101 % of control, the T/C [9] was 96 % of control and the T/C [10] was 113 % of control.
For `NC(=O)C[n+]1ccccc1`, the T/C [11] was 106 % of control, the T/C [12] was 98 % of control and the T/C [13] was 97 % of control.
For `CCOC(=O)c1cnc(SC)nc1Nc1ccc(C)cc1C`, the T/C [5] was 96 % of control, the T/C [7] was 101 % of control and the T/C [9] was 109 % of control.
In the case of `CC1OC(OC2C(O)C(O)C(O)C(O)C2O)C(N)CC1N=C(N)C(=O)O` (stereo unspecified), the T/C [2] is reported as 90 % of control, the T/C [3] is reported as 96 % of control and the T/C [4] is reported as 100 % of control.
For `S=c1nc[nH]c2c1ncn2C1OC(COCc2ccccc2)C(OCc2ccccc2)C1OCc1ccccc1` (stereo unspecified), the T/C (dose: 50.0 mg/kg/injection, schedule: Q01DX001 (ip), vehicle: saline) was 93 % of control, the T/C [11] was 102 % of control and the T/C [12] was 93 % of control. The T/C [13] was 96 % of control.
With `CCCCCCCCCCCCCCCCCCCCCCCCCCCCCC` the T/C [6] was 93 % of control, the T/C [8] was 89 % of control and the T/C [10] was 89 % of control.
`O=C(COc1ccc(Cl)c(Cl)c1)NCc1ccc[n+](Cc2ccc(S(=O)(=O)F)cc2Cl)c1` was tested, and the T/C (dose: 25.0 mg/kg/injection, schedule: Q04DX003 (ip), vehicle: saline with Tween-80) was 109 % of control, the T/C [14] was 101 % of control and the T/C [15] was 86 % of control.
`CCOC(=O)c1ccc(NCc2cnc(N)c(C#N)n2)cc1` was tested, and the T/C [15] was 91 % of control, the T/C [16] was 95 % of control and the T/C [17] was 95 % of control.
With `C/C=C/C1CCCCC1` the T/C [18] was 97 % of control, the T/C (dose: 100.0 mg/kg/injection, schedule: Q01DX009 (ip), vehicle: saline) was 97 % of control and the T/C (dose: 200.0 mg/kg/injection, schedule: Q01DX009 (ip), vehicle: saline) was 93 % of control.
`Cc1ccc(C2(O)CCN(CCCC(=O)c3ccc(F)cc3)CC2)cc1` was tested, and the T/C (dose: 3.12 mg/kg/injection, schedule: Q01DX009 (ip), vehicle: Klucel (hydroxypropylcellulose) (HPC)) was 101 % of control, the T/C (dose: 6.25 mg/kg/injection, schedule: Q01DX009 (ip), vehicle: Klucel (hydroxypropylcellulose) (HPC)) was 104 % of control and the T/C (dose: 12.5 mg/kg/injection, schedule: Q01DX009 (ip), vehicle: Klucel (hydroxypropylcellulose) (HPC)) was 101 % of control. For the same molecule, the T/C (dose: 25.0 mg/kg/injection, schedule: Q01DX009 (ip), vehicle: Klucel (hydroxypropylcellulose) (HPC)) was 113 % of control and the T/C [19] was 104 % of control.
`CC(/C=C/c1ccc(O)cc1)=N\O` was tested, and the T/C (dose: 100.0 mg/kg/injection, schedule: Q01DX009 (ip), vehicle: saline with Tween-80) was 89 % of control and the T/C (dose: 200.0 mg/kg/injection, schedule: Q01DX009 (ip), vehicle: saline with Tween-80) was 100 % of control.
With `C[Si](C)(CCl)O[Si](C)(C)CCl` the T/C [1] was 113 % of control, the T/C [2] was 97 % of control and the T/C [3] was 106 % of control. For the same molecule, the T/C [4] was 97 % of control.
For `CCc1ccc(NC(=O)NC(C)C)cc1`, the T/C [19] was 113 % of control, the T/C [5] was 91 % of control and the T/C [6] was 103 % of control. For the same molecule, the T/C [7] was 103 % of control and the T/C [8] was 92 % of control.
With `CC(C)(C)NC(=O)Cc1ccccc1` the T/C [14] was 97 % of control, the T/C [15] was 98 % of control and the T/C [16] was 103 % of control.
With `C=C(Br)CN=C=S` the T/C (dose: 12.5 mg/kg/injection, schedule: Q01DX009 (ip), vehicle: saline) was 96 % of control, the T/C (dose: 25.0 mg/kg/injection, schedule: Q01DX009 (ip), vehicle: saline) was 104 % of control and the T/C [18] was 102 % of control.
In the case of `Cn1c(=O)c2c(nc(OCC3CC4CCC3C4)n2C)n(C)c1=O` (stereo unspecified), the T/C [11] is reported as 96 % of control, the T/C [12] is reported as 108 % of control and the T/C [13] is reported as 108 % of control.
With `Cc1nnc(N(C)C)nc1C` the T/C (dose: 100.0 mg/kg/injection, schedule: Q01DX001 (ip), vehicle: saline with Tween-80) was 98 % of control, the T/C (dose: 200.0 mg/kg/injection, schedule: Q01DX001 (ip), vehicle: saline with Tween-80) was 97 % of control and the T/C (dose: 400.0 mg/kg/injection, schedule: Q01DX001 (ip), vehicle: saline with Tween-80) was 108 % of control.
With `CC(=O)OCc1ccc(Cl)cc1Cl` the T/C [15] was 97 % of control, the T/C [16] was 97 % of control and the T/C [17] was 101 % of control.
